Measured values as given in patent publication US6355799B1, “Substituted benzene compounds, process for their preparation, and herbicidal and defoliant compositions containing them” (ISK Americas Incorporated, priority 1997, dated 2002).

Assays:
Type in all cases: in vivo
[1] = tested on: redroot pigweed (Amaranthus retroflexus, AMARE); assay: Pre-emerge test, greenhouse herbicide activity screening; conditions: pre-emerge, 14 days after application, rating scale 0-100
Method in brief: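 Visual ratings on a 0-100 scale (0 no damage, 100 all plants dead) were taken at 14 days after treatment. Rates of 15-1000 g ai/ha in acetone, 187 l/ha, were sprayed onto soil one day after planting (pre-emerge) or onto 2-3 leaf plants with 0.25% v/v surfactant (post-emerge).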

[2] = tested on: barnyardgrass (Echinochloa crus-galli, ECHCG); assay: as above; conditions: pre-emerge, 14 days after application, rating scale 0-100
Method in brief: (§1)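 Rating: 0–100 visual injury, 14 DAA. Application: acetone, 187 l/ha, 15–1000 g ai/ha, flat-fan track sprayer with nozzle 40–45 cm above soil or canopy. Post-emerge runs used 0.25% v/v surfactant on 2–3 leaf plants.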

[3] = tested on: green foxtail (Setaria viridis, SETVI); assay: as above; conditions: pre-emerge, 14 days after application, rating scale 0-100
Method in brief: as §1

[4] = tested on: ivyleaf morningglory (Ipomoea hederacea, IPOHE); assay: as above; conditions: pre-emerge, 14 days after application, rating scale 0-100
Method in brief: as §1

[5] = tested on: johnsongrass (Sorghum halepense, SORHA); assay: as above; conditions: pre-emerge, 14 days after application, rating scale 0-100
Method in brief: as §1

[6] = tested on: lambsquarters (Chenopodium album, CHEAL); assay: as above; conditions: pre-emerge, 14 days after application, rating scale 0-100
Method in brief: as §1

[7] = tested on: large crabgrass (Digitaria sanguinalis, DIGSA); assay: as above; conditions: pre-emerge, 14 days after application, rating scale 0-100
Method in brief: as §1

[8] = tested on: sicklepod (Cassia obtusifolia, CASOB); assay: as above; conditions: pre-emerge, 14 days after application, rating scale 0-100
Method in brief: as §1

[9] = tested on: velvetleaf (Abutilon theophrasti, ABUTH); assay: as above; conditions: pre-emerge, 14 days after application, rating scale 0-100
Method in brief: as §1

[10] = tested on: field corn (Zea mays L., var. Dekalb 535, CORN); assay: Pre-emerge test, crop safety; conditions: pre-emerge, 14 days after application, rating scale 0-100
Method in brief: (§2)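 Compounds in acetone were track-sprayed at 187 l/ha, 15–1000 g ai/ha, onto sandy loam pots. Pre-emerge seeds were sown one day before spraying, with surface watering afterwards. Post-emerge plants were at the 2–3 leaf stage and sprayed with 0.25% v/v non-ionic surfactant. Injury was rated 0–100 at 14 days.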

[11] = tested on: upland rice (Oryza sp., var. Tebonnet, RICE); assay: Pre-emerge test, crop safety; conditions: pre-emerge, 14 days after application, rating scale 0-100
Method in brief: as §2

[12] = tested on: barnyardgrass (Echinochloa crus-galli, ECHCG); assay: Post-emerge test, greenhouse herbicide activity screening; conditions: post-emerge, 14 days after application, rating scale 0-100
Method in brief: (§3)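 Each test used a mechanized track sprayer delivering 187 l/ha of acetone solution at 15–1000 g ai/ha. Post-emerge foliage at 2–3 leaves was treated with added 0.25% v/v non-ionic surfactant and bottom-watered only. Injury was assessed on day 14, where 100 means total kill.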

[13] = tested on: green foxtail (Setaria viridis, SETVI); assay: as above; conditions: post-emerge, 14 days after application, rating scale 0-100
Method in brief: as §3

[14] = tested on: ivyleaf morningglory (Ipomoea hederacea, IPOHE); assay: as above; conditions: post-emerge, 14 days after application, rating scale 0-100
Method in brief: as §3

[15] = tested on: johnsongrass (Sorghum halepense, SORHA); assay: as above; conditions: post-emerge, 14 days after application, rating scale 0-100
Method in brief: as §3

[16] = tested on: lambsquarters (Chenopodium album, CHEAL); assay: as above; conditions: post-emerge, 14 days after application, rating scale 0-100
Method in brief: as §3

[17] = tested on: large crabgrass (Digitaria sanguinalis, DIGSA); assay: as above; conditions: post-emerge, 14 days after application, rating scale 0-100
Method in brief: as §3

[18] = tested on: redroot pigweed (Amaranthus retroflexus, AMARE); assay: as above; conditions: post-emerge, 14 days after application
Method in brief: as §3

[19] = tested on: sicklepod (Cassia obtusifolia, CASOB); assay: as above; conditions: post-emerge, 14 days after application, rating scale 0-100
Method in brief: as §3

[20] = tested on: velvetleaf (Abutilon theophrasti, ABUTH); assay: as above; conditions: post-emerge, 14 days after application, rating scale 0-100
Method in brief: as §3

[21] = tested on: field corn (Zea mays L., var. Dekalb 535, CORN); assay: Post-emerge test, crop safety; conditions: post-emerge, 14 days after application, rating scale 0-100
Method in brief: (§4)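 Plants grown in 10 cm pots of sandy loam mix received acetone-dissolved compounds through a moving flat-fan nozzle. Doses ranged from 15 to 1000 g ai/ha. Pre-emerge pots were seeded one day earlier, post-emerge pots 8–21 days earlier. Fourteen days on, each pot was graded 0–100 for damage.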

[22] = tested on: upland rice (Oryza sp., var. Tebonnet, RICE); assay: Post-emerge test, crop safety; conditions: post-emerge, 14 days after application, rating scale 0-100
Method in brief: as §4

COCC(C)=NNc1c(OC)c(Cl)cc(F)c1-n1c(=O)cc(C(F)(F)F)n(C)c1=O [15-13]
85: Post-emerge Herbicidal Activity ECHCG (phytotoxicity rating) ([12]; 250 g ai/ha)
99: phytotoxicity rating ECHCG ([2]; 46 g ai/ha) | phytotoxicity rating SORHA ([5]; 46 g ai/ha)
100: phytotoxicity rating AMARE ([1]; 46 g ai/ha) | phytotoxicity rating AMARE ([1]; 185 g ai/ha) | phytotoxicity rating ECHCG ([2]; 185 g ai/ha) | phytotoxicity rating SETVI ([3]; 46 g ai/ha) | phytotoxicity rating SETVI ([3]; 185 g ai/ha) | phytotoxicity rating IPOHE ([4]; 46 g ai/ha) | phytotoxicity rating IPOHE ([4]; 185 g ai/ha) | phytotoxicity rating SORHA ([5]; 185 g ai/ha) | phytotoxicity rating CHEAL ([6]; 46 g ai/ha) | phytotoxicity rating CHEAL ([6]; 185 g ai/ha) | phytotoxicity rating DIGSA ([7]; 46 g ai/ha) | phytotoxicity rating DIGSA ([7]; 185 g ai/ha) | phytotoxicity rating CASOB ([8]; 46 g ai/ha) | phytotoxicity rating CASOB ([8]; 185 g ai/ha) | phytotoxicity rating ABUTH ([9]; 46 g ai/ha) | phytotoxicity rating ABUTH ([9]; 185 g ai/ha) | phytotoxicity rating CORN ([10]; 185 g ai/ha) | phytotoxicity rating RICE ([11]; 185 g ai/ha) | Post-emerge Herbicidal Activity IPOHE (phytotoxicity rating) ([14]; 63 g ai/ha) | Post-emerge Herbicidal Activity IPOHE (phytotoxicity rating) ([14]; 250 g ai/ha) | Post-emerge Herbicidal Activity CHEAL (phytotoxicity rating) ([16]; 250 g ai/ha) | Post-emerge Herbicidal Activity CASOB (phytotoxicity rating) ([19]; 250 g ai/ha) | Post-emerge Herbicidal Activity ABUTH (phytotoxicity rating) ([20]; 63 g ai/ha) | Post-emerge Herbicidal Activity ABUTH (phytotoxicity rating) ([20]; 250 g ai/ha)
60: Post-emerge Herbicidal Activity SETVI (phytotoxicity rating) ([13]; 250 g ai/ha) | Post-emerge Herbicidal Activity CASOB (phytotoxicity rating) ([19]; 63 g ai/ha) | Post-emerge Herbicidal Activity RICE (crop damage rating) ([22]; 63 g ai/ha)
95: Post-emerge Herbicidal Activity CHEAL (phytotoxicity rating) ([16]; 63 g ai/ha) | Post-emerge Herbicidal Activity AMARE (phytotoxicity rating) ([18]; 250 g ai/ha, rating scale 0-100)
10: Post-emerge Herbicidal Activity SORHA (phytotoxicity rating) ([15]; 63 g ai/ha) | Post-emerge Herbicidal Activity DIGSA (phytotoxicity rating) ([17]; 63 g ai/ha)
35: phytotoxicity rating CORN ([10]; 46 g ai/ha)
15: Post-emerge Herbicidal Activity CORN (crop damage rating) ([21]; 63 g ai/ha)
80: Post-emerge Herbicidal Activity AMARE (phytotoxicity rating) ([18]; 63 g ai/ha, rating scale 0-100 (0 no damage, 100 complete death))
20: Post-emerge Herbicidal Activity ECHCG (phytotoxicity rating) ([12]; 63 g ai/ha) | Post-emerge Herbicidal Activity SETVI (phytotoxicity rating) ([13]; 63 g ai/ha)
50: Post-emerge Herbicidal Activity CORN (crop damage rating) ([21]; 250 g ai/ha)
90: phytotoxicity rating RICE ([11]; 46 g ai/ha) | Post-emerge Herbicidal Activity RICE (crop damage rating) ([22]; 250 g ai/ha)
70: Post-emerge Herbicidal Activity SORHA (phytotoxicity rating) ([15]; 250 g ai/ha) | Post-emerge Herbicidal Activity DIGSA (phytotoxicity rating) ([17]; 250 g ai/ha)
